# Biological target: T1, human GPR17 receptor (Homo sapiens, UniProt Q13304)
# T1 construct: host or cells: HEK-293
# Test: Calcium mobilization functional assay (Fluo-8, FLIPR TETRA) in HEK-293 hGPR17 (Gα-q assay)
# Format: cell-based
# Conditions: antagonism of MDL29,951 (~EC80) induced Ca2+ signal; cell line (HEK-293 hGPR17 or HEK-293 Suchi5 hGPR17) not given
# Outline: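 Fluo-8-loaded HEK-293 hGPR17 cells (60 min dye loading, room temperature) were preincubated with compound for twenty minutes, then challenged with agonist MDL29,951 at ~EC80, 500 nM. Intracellular calcium release via Gα-q was recorded as FLIPR fluorescence for a further 2 minutes; compounds tested in duplicate.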
# T1 sequence (Q13304 whole entry): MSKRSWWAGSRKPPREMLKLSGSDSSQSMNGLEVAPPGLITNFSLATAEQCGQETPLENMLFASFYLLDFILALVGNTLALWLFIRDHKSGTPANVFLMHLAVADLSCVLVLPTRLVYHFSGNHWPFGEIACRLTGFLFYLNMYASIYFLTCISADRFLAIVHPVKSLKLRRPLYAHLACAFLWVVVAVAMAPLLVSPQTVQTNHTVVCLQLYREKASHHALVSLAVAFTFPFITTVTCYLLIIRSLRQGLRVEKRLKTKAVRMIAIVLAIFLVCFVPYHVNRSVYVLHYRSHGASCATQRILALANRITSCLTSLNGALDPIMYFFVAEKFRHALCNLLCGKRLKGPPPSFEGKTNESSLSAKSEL
row,Structure (SMILES),IC50
1,"Cc1cc(F)c(NS(=O)(=O)c2c[nH]c(-c3ccccc3)c2)cc1F [Cpd 070, N-(2,5-difluoro-4-methyl-phenyl)-5-phenyl-1H-pyrrole-3-sulfonamide]",< 500 nM
2,"O=S(=O)(Nc1cc(Cl)c(OC(F)F)cc1F)c1c[nH]c(-c2ccccc2)c1 [Cpd 455, N-[5-chloro-4-(difluoromethoxy)-2-fluorophenyl]-5-phenyl-1H-pyrrole-3-sulfonamide]",< 500 nM
3,"N#Cc1ccc(NS(=O)(=O)c2c[nH]c(-c3ccccc3Cl)c2)c(F)c1 [Cpd 016, 5-(2-chlorophenyl)-N-(4-cyano-2-fluoro-phenyl)-1H-pyrrole-3-sulfonamide]",< 500 nM
4,"COc1sccc1-c1cc(S(=O)(=O)Nc2cc(F)c(C(F)(F)F)cc2F)c[nH]1 [Cpd 539, N-[2,5-difluoro-4-(trifluoromethyl)phenyl]-5-(2-methoxythiophen-3-yl)-1H-pyrrole-3-sulfonamide]",< 500 nM
5,"N#Cc1cc(F)c(NS(=O)(=O)c2c[nH]cc2Cc2cc(F)cc(Cl)c2)cc1F [Cpd 605, 4-[(3-chloro-5-fluorophenyl)methyl]-N-(4-cyano-2,5-difluorophenyl)-1H-pyrrole-3-sulfonamide]",500 to 5000 nM
6,"COc1cccc(-c2cc(S(=O)(=O)Nc3ccc(C#N)cc3F)c[nH]2)c1C [Cpd 283, N-(4-cyano-2-fluoro-phenyl)-5-(3-methoxy-2-methyl-phenyl)-1H-pyrrole-3-sulfonamide]",5000 to 50000 nM
7,"Cn1cc2cccc(-c3cc(S(=O)(=O)Nc4cc(F)c(C(F)(F)F)cc4F)c[nH]3)c2n1 [Cpd 540, N-[2,5-difluoro-4-(trifluoromethyl)phenyl]-5-(2-methylindazol-7-yl)-1H-pyrrole-3-sulfonamide]",500 to 5000 nM
8,"N#Cc1ccc(NS(=O)(=O)c2c[nH]c(-c3cccc(F)c3F)c2)c(F)c1 [Cpd 040, N-(4-cyano-2-fluoro-phenyl)-5-(2,3-difluorophenyl)-1H-pyrrole-3-sulfonamide]",< 500 nM
9,"O=S(=O)(Nc1cc(F)c(C(F)(F)F)cc1F)c1c[nH]c(C2CCCCC2)c1 [Cpd 423, 5-cyclohexyl-N-[2,5-difluoro-4-(trifluoromethyl)phenyl]-1H-pyrrole-3-sulfonamide]",500 to 5000 nM
10,"[2H]C([2H])(c1cccc(F)c1)c1c[nH]cc1S(=O)(=O)Nc1cc(F)c(C#N)cc1F [Cpd 643, N-(4-cyano-2,5-difluorophenyl)-4-((3-fluorophenyl)methyl-d2)-1H-pyrrole-3-sulfonamide]",< 500 nM
11,"N#Cc1cc(F)c(NS(=O)(=O)c2c[nH]c(-c3ncc(C(F)(F)F)s3)c2)cc1F [Cpd 667, N-(4-cyano-2,5-difluorophenyl)-5-[5-(trifluoromethyl)-1,3-thiazol-2-yl]-1H-pyrrole-3-sulfonamide]",5000 to 50000 nM
12,"N#Cc1ccc(NS(=O)(=O)c2c[nH]c(-c3ccc(F)cc3)c2)c(F)c1 [Cpd 007, N-(4-cyano-2-fluoro-phenyl)-5-(4-fluorophenyl)-1H-pyrrole-3-sulfonamide]",< 500 nM
13,"O=S(=O)(Nc1cc(F)c(C(F)(F)F)cc1F)c1c[nH]c(-c2cc(F)ccc2F)c1 [Cpd 393, 5-(2,5-difluorophenyl)-N-[2,5-difluoro-4-(trifluoromethyl)phenyl]-1H-pyrrole-3-sulfonamide]",< 500 nM
14,"N#Cc1ccc(NS(=O)(=O)c2c[nH]c(-c3ccc(F)c(F)c3)c2)c(F)c1 [Cpd 291, N-(4-cyano-2-fluoro-phenyl)-5-(3,4-difluorophenyl)-1H-pyrrole-3-sulfonamide]",500 to 5000 nM
15,"O=S(=O)(Nc1cc(F)c(Br)cc1F)c1c[nH]c(-c2cccc(Cl)n2)c1 [Cpd 527, N-(4-bromo-2,5-difluorophenyl)-5-(6-chloropyridin-2-yl)-1H-pyrrole-3-sulfonamide]",< 500 nM
16,"Cc1ccc(NS(=O)(=O)c2c[nH]c(-c3ccccc3)c2)c(C)n1 [Cpd 101, N-(2,6-dimethyl-3-pyridyl)-5-phenyl-1H-pyrrole-3-sulfonamide]",500 to 5000 nM
17,"O=S(=O)(Nc1cc(F)c(OC(F)F)cc1F)c1c[nH]c(-c2ncco2)c1 [Cpd 636, N-[4-(difluoromethoxy)-2,5-difluorophenyl]-5-(1,3-oxazol-2-yl)-1H-pyrrole-3-sulfonamide]",< 500 nM
18,"Cc1cccnc1-c1cc(S(=O)(=O)Nc2cc(F)c(C(F)(F)F)cc2F)c[nH]1 [Cpd 155, N-[2,5-difluoro-4-(trifluoromethyl)phenyl]-5-(3-methyl-2-pyridyl)-1H-pyrrole-3-sulfonamide]",< 500 nM
19,"N#Cc1ccc(NS(=O)(=O)c2c[nH]c(-c3ccccc3F)c2)cc1Cl [Cpd 058, N-(3-chloro-4-cyano-phenyl)-5-(2-fluorophenyl)-1H-pyrrole-3-sulfonamide]",500 to 5000 nM
20,"O=S(=O)(Nc1cc(F)c(Br)cc1F)c1c[nH]c(-c2cc(Cl)ccc2F)c1 [Cpd 414, N-(4-bromo-2,5-difluorophenyl)-5-(5-chloro-2-fluorophenyl)-1H-pyrrole-3-sulfonamide]",500 to 5000 nM
21,"N#Cc1cc(F)c(NS(=O)(=O)c2c[nH]c(-c3ccccc3)c2)cc1Cl [Cpd 333, N-(5-chloro-4-cyano-2-fluoro-phenyl)-5-phenyl-1H-pyrrole-3-sulfonamide]",< 500 nM

row,Structure (SMILES),IC50
1,"Cc1ccccc1-c1cc(S(=O)(=O)Nc2cc(F)c(F)cc2F)c[nH]1 [Cpd 111, 5-(o-tolyl)-N-(2,4,5-trifluorophenyl)-1H-pyrrole-3-sulfonamide]",500 to 5000 nM
2,"O=S(=O)(Nc1cc(F)c(C(F)(F)F)cc1F)c1c[nH]c(-c2ccc(F)cc2F)c1 [Cpd 366, 5-(2,4-difluorophenyl)-N-[2,5-difluoro-4-(trifluoromethyl)phenyl]-1H-pyrrole-3-sulfonamide]",500 to 5000 nM
3,"N#Cc1ccc(NS(=O)(=O)c2c[nH]c(-c3cc(Cl)ccc3F)c2)c(F)c1 [Cpd 046, 5-(5-chloro-2-fluoro-phenyl)-N-(4-cyano-2-fluoro-phenyl)-1H-pyrrole-3-sulfonamide]",< 500 nM
4,"N#Cc1ccc(NS(=O)(=O)c2c[nH]c(-c3c(F)cccc3F)c2)c(F)c1 [Cpd 091, N-(4-cyano-2-fluoro-phenyl)-5-(2,6-difluorophenyl)-1H-pyrrole-3-sulfonamide]",< 500 nM
5,"N#Cc1cc(F)c(NS(=O)(=O)c2c[nH]c(-c3nccs3)c2)cc1F [Cpd 598, N-(4-cyano-2,5-difluorophenyl)-5-(1,3-thiazol-2-yl)-1H-pyrrole-3-sulfonamide]",< 500 nM
6,"COc1c(F)cccc1-c1cc(S(=O)(=O)Nc2cc(F)c(C#N)cc2F)c[nH]1 [Cpd 652, N-(4-cyano-2,5-difluorophenyl)-5-(3-fluoro-2-methoxyphenyl)-1H-pyrrole-3-sulfonamide]",< 500 nM
7,"O=S(=O)(Nc1ccc(F)cc1F)c1c[nH]c(-c2ccccc2F)c1 [Cpd 054, N-(2,4-difluorophenyl)-5-(2-fluorophenyl)-1H-pyrrole-3-sulfonamide]",5000 to 50000 nM
8,"N#Cc1ccc(NS(=O)(=O)c2c[nH]cc2Cc2cccc(F)c2)c(F)c1 [Cpd 171, N-(4-cyano-2-fluoro-phenyl)-4-[(3-fluorophenyl)methyl]-1H-pyrrole-3-sulfonamide]",< 500 nM
9,"O=S(=O)(Nc1cc(F)c(C(F)(F)F)cc1F)c1c[nH]c(-c2cccc(C(F)(F)F)n2)c1 [Cpd 344, N-[2,5-difluoro-4-(trifluoromethyl)phenyl]-5-[6-(trifluoromethyl)-2-pyridyl]-1H-pyrrole-3-sulfonamide]",500 to 5000 nM
10,"COc1cc(F)c(NS(=O)(=O)c2c[nH]c(-c3ccccn3)c2)cc1F [Cpd 183, N-(2,5-difluoro-4-methoxy-phenyl)-5-(2-pyridyl)-1H-pyrrole-3-sulfonamide]",500 to 5000 nM
11,"N#Cc1ccc(NS(=O)(=O)c2c[nH]c(-c3cncs3)c2)c(F)c1 [Cpd 641, N-(4-cyano-2-fluorophenyl)-5-(1,3-thiazol-5-yl)-1H-pyrrole-3-sulfonamide]",< 500 nM
12,"O=S(=O)(Nc1cc(F)c(OC(F)F)cc1F)c1c[nH]cc1Cc1cccc(Cl)c1 [Cpd 454, 4-[(3-chlorophenyl)methyl]-N-[4-(difluoromethoxy)-2,5-difluorophenyl]-1H-pyrrole-3-sulfonamide]",500 to 5000 nM
13,"O=S(=O)(Nc1cc(F)c(OC(F)F)cc1F)c1c[nH]cc1Cc1ccccc1F [Cpd 484, N-[4-(difluoromethoxy)-2,5-difluorophenyl]-4-[(2-fluorophenyl)methyl]-1H-pyrrole-3-sulfonamide]",< 500 nM
14,"N#Cc1ccc(NS(=O)(=O)c2c[nH]c(-c3cccc(Cl)c3F)c2)c(F)c1 [Cpd 039, 5-(3-chloro-2-fluoro-phenyl)-N-(4-cyano-2-fluoro-phenyl)-1H-pyrrole-3-sulfonamide]",< 500 nM
15,"O=S(=O)(Nc1ccc(C(F)(F)F)cn1)c1c[nH]c(-c2ccccc2)c1 [Cpd 138, 5-phenyl-N-[5-(trifluoromethyl)-2-pyridyl]-1H-pyrrole-3-sulfonamide]",5000 to 50000 nM
16,"Cc1ccc(NS(=O)(=O)c2c[nH]c(-c3ccccc3F)c2)c(F)c1 [Cpd 057, N-(2-fluoro-4-methyl-phenyl)-5-(2-fluorophenyl)-1H-pyrrole-3-sulfonamide]",500 to 5000 nM
17,"N#Cc1ccc(NS(=O)(=O)c2c[nH]c(-c3cccc(F)n3)c2)c(F)c1 [Cpd 502, N-(4-cyano-2-fluorophenyl)-5-(6-fluoropyridin-2-yl)-1H-pyrrole-3-sulfonamide]",< 500 nM
18,"N#Cc1cc(F)c(NS(=O)(=O)c2c[nH]c(-c3ccccc3F)c2)cc1F [Cpd 074, N-(4-cyano-2,5-difluoro-phenyl)-5-(2-fluorophenyl)-1H-pyrrole-3-sulfonamide]",< 500 nM
19,"N#Cc1cc(F)c(NS(=O)(=O)c2c[nH]cc2Cc2ccc(F)cc2)cc1F [Cpd 584, N-(4-cyano-2,5-difluorophenyl)-4-[(4-fluorophenyl)methyl]-1H-pyrrole-3-sulfonamide]",< 500 nM
20,"N#Cc1ccc(NS(=O)(=O)c2c[nH]c(-c3ccccc3C(F)(F)F)c2)c(F)c1 [Cpd 079, N-(4-cyano-2-fluoro-phenyl)-5-[2-(trifluoromethyl)phenyl]-1H-pyrrole-3-sulfonamide]",500 to 5000 nM
